target: Recombinant human HSD17B13 enzyme (Homo sapiens (Human), UniProt Q7Z5P4); assay: HSD17b13 NAD(P)H-Glo Biochemical Assay; conditions: 50 uM estradiol, 1 mM NAD+; read-out: HSD17β13 IC50
Procedure, shortened: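 Recombinant human HSD17B13 was pre-incubated with inhibitor for 20 min at RT in 20 mM Tris pH 7.4 with 0.002% Tween-20 and 0.02% BSA. Reaction then ran with 50 uM estradiol and 1 mM NAD+ (final) for 3 h at 37° C. NADH formed was detected by NAD(P)H-Glo luminescence after 1 h at RT.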

Recombinant human HSD17B13 enzyme, sequence (Q7Z5P4 20-300): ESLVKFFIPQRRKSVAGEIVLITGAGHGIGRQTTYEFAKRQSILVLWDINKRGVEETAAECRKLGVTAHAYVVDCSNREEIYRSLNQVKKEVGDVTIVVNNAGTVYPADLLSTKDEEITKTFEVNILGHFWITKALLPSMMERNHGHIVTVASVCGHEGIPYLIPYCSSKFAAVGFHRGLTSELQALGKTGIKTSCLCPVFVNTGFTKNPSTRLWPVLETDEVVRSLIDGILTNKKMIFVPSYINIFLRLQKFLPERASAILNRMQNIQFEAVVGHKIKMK

`Cc1cc(-n2ncc3cc(N4CCN(S(C)(=O)=O)CC4)ncc32)c(F)c(O)c1F` [Compound 19.28, 2,6-Difluoro-3-methyl-5-(5-(4-(methylsulfonyl)piperazin-1-yl)-1H-pyrazolo[3,4-c]pyridine-1-yl)phenol] and `CS(=O)(=O)N1CCN(c2cc3cnn(-c4ccc(Cl)c(O)c4F)c3cn2)CC1` [Compound 19.27, 6-Chloro-2-fluoro-3-(5-(4-(methylsulfonyl)piperazin-1-yl)-1H-pyrazolo[3,4-c]pyridine-1-yl)phenol] fall in the same range of IC50: 1000 to 30000 nM for the first, 1000 to 30000 nM for the second.

`CN(c1ccc2c(c1)c(Cl)nn2-c1cc(C(F)(F)F)c(F)c(O)c1F)C1CCOCC1` [Compound 19.87, 3-(3-Chloro-5-(methyl(tetrahydro-2H-pyran-4-yl)amino)-1H-indazol-1-yl)-2,6-difluoro-5-(trifluoromethyl)phenol] and `Cc1nn(-c2cc(C(F)(F)F)c(F)c(O)c2F)c2ccc(N(C)C3CCOCC3)c(F)c12` [Compound 19.101, 2,6-Difluoro-3-(4-fluoro-3-methyl-5-(methyl(tetrahydro-2H-pyran-4-yl)amino)-1H-indazol-1-yl)-5-(trifluoromethyl)phenol] fall in the same range of IC50: 100 to 1000 nM for the first, 100 to 1000 nM for the second.

`CS(=O)(=O)C1CCN(c2ccc3c(cnn3-c3cc(O)c(F)c(F)c3)c2)CC1` [Compound 21.06, 2,3-Difluoro-5-(5-(4-(methyl-sulfonyl)piperidin-1-yl)-1H-indazol-1-yl)phenol] and `CC1(C)CN(S(C)(=O)=O)CCN1c1ccc2c(cnn2-c2cc(O)c(F)c(F)c2)c1` [Compound 21.30, 5-(5-(2,2-Dimethyl-4-(methyl-sulfonyl)piperazin-1-yl)-1H-indazol-1-yl)-2,3-difluoro-phenol] fall in the same range of IC50: 1000 to 30000 nM for the first, 1000 to 30000 nM for the second.

Compared with `COC1CCN(c2cc3c(C)nn(-c4cc(C(F)(F)F)c(F)c(O)c4F)c3cn2)CC1` [Compound 19.51, 2,6-Difluoro-3-(5-(4-methoxypiperidin-1-yl)-3-methyl-1H-pyrazolo[3,4-c]pyridine-1-yl)-5-(trifluoromethyl)phenol], `COC1CCN(c2cc3c(C)nn(-c4cc(C(F)(F)F)c(F)c(O)c4F)c3cn2)C2(CC2)C1` (centres unmarked) [Compound 19.52, 2,6-Difluoro-3-(5-(7-methoxy-4-azaspiro[2.5]octan-4-yl)-3-methyl-1H-pyrazolo[3,4-c]pyridine-1-yl)-5-(trifluoromethyl)phenol] is lower in IC50: 100 to 1000 nM for the first, < 100 nM for the second.

Compared with `CC1(C)COCCN1c1cc2cnn(-c3cc(O)c(F)c(C(F)(F)F)c3)c2cn1` [Compound 19.32, 5-(5-(3,3-Dimethylmorpholino)-1H-pyrazolo[3,4-c]pyridine-1-yl)-2-fluoro-3-(trifluoromethyl)phenol], `Cc1nn(-c2cc(C(F)(F)F)c(Cl)c(O)c2F)c2cnc(N3CCOCC34CC4)cc12` [Compound 19.116, 2-Chloro-6-fluoro-5-(3-methyl-5-(7-oxa-4-azaspiro[2.5]octan-4-yl)-1H-pyrazolo[3,4-c]pyridin-1-yl)-3-(trifluoromethyl)phenol] is lower in IC50: 100 to 1000 nM for the first, < 100 nM for the second.

`N#Cc1nn(-c2ccc(F)c(O)c2)c2ccc(-c3ccc(O)c(Cl)c3)cc12` [Compound 4.15, 5-(3-Chloro-4-hydroxyphenyl)-1-(4-fluoro-3-hydroxyphenyl)-1H-indazole-3-carbonitrile] and `Oc1cc(-n2ncc3cc(-c4ccc(Cl)c(O)c4)ccc32)ccc1F` [Compound 5.01, 2-Chloro-5-(1-(4-fluoro-3-hydroxyphenyl)-1H-indazol-5-yl)phenol] fall in the same range of IC50: 100 to 1000 nM for the first, 100 to 1000 nM for the second.

First: Cc1nn(-c2cc(C(F)(F)F)c(F)c(O)c2F)c2cnc(N3CCN(S(C)(=O)=O)CC3)cc12 [Compound 19.45, 2,6-Difluoro-3-(3-methyl-5-(4-(methylsulfonyl)piperazin-1-yl)-1H-pyrazolo[3,4-c]pyridine-1-yl)-5-(trifluoromethyl)phenol]
Second: Cc1nn(-c2cc(C(F)(F)F)c(F)c(O)c2F)c2cnc(N3CCN(S(=O)(=O)c4cnn(C)c4)CC34CC4)cc12 [Compound 19.84, 2,6-Difluoro-3-(3-methyl-5-(7-((1-methyl-1H-pyrazol-4-yl)sulfonyl)-4,7-diazaspiro[2.5]octan-4-yl)-1H-pyrazolo[3,4-c]pyridin-1-yl)-5-(trifluoromethyl)phenol]
The IC50 of the first is higher: 100 to 1000 nM for the first, < 100 nM for the second.

`Oc1ccc(-c2ccc3c(cnn3-c3cc(O)c(F)c(F)c3)c2)c(Cl)c1` [Compound 4.10, 5-(5-(2-Chloro-4-hydroxyphenyl)-1H-indazol-1-yl)-2,3-difluorophenol] and `Nc1ccc(-c2ccc3c(cnn3-c3ccc(F)c(O)c3)c2)c(Cl)c1` [Compound 9, 5-(5-(4-Amino-2-chlorophenyl)-1H-indazol-1-yl)-2-fluorophenol] fall in the same range of IC50: 100 to 1000 nM for the first, 100 to 1000 nM for the second.

`NS(=O)(=O)c1ccc(-c2ccc3c(cnn3-c3ccc(F)c(O)c3)c2)cc1` [Compound 5.04, 4-(1-(4-Fluoro-3-hydroxyphenyl)-1H-indazol-5-yl)benzenesulfonamide] and `Oc1ccc(-c2ccc3c(cnn3-c3ccc(F)c(O)c3)c2)cc1` [Compound 4.01, 2-Fluoro-5-(5-(4-hydroxyphenyl)-1H-indazol-1-yl)phenol] fall in the same range of IC50: 100 to 1000 nM for the first, 100 to 1000 nM for the second.

Compared with `CS(=O)(=O)N1CCN(c2cc3cnn(-c4cc(O)c(F)c(Cl)c4)c3cc2F)CC1` [Compound 19.02, 3-Chloro-2-fluoro-5-(6-fluoro-5-(4-(methylsulfonyl)piperazin-1-yl)-1H-indazol-1-yl)phenol], `CS(=O)(=O)N1CCN(c2ccc3c(cnn3-c3cc(O)c(F)c(F)c3)n2)CC1` [Compound 21.18, 2,3-Difluoro-5-(5-(4-(methyl-sulfonyl)piperazin-1-yl)-1H-pyrazolo[4,3-b]pyridine-1-yl)-phenol] is higher in IC50: 100 to 1000 nM for the first, 1000 to 30000 nM for the second. The first is the more potent here.

First: Oc1ccc(-c2ccc3c(cnn3-c3ccc(F)c(O)c3F)c2)cc1Cl [Compound 8, 3-(5-(3-Chloro-4-hydroxyphenyl)-1H-indazol-1-yl)-2,6-difluorophenol]
Second: Oc1ccc(-c2ccc3c(cnn3-c3cc(O)c(F)c(C(F)(F)F)c3)c2)cc1Cl [Compound 1.04, 5-(5-(3-Chloro-4-hydroxyphenyl)-1H-indazol-1-yl)-2-fluoro-3-(trifluoromethyl)phenol]
The IC50 of the first is higher: 100 to 1000 nM for the first, < 100 nM for the second. The second is the more potent here.

Compared with `Cc1nn(-c2cc(C(F)(F)F)c(F)c(O)c2F)c2cnc(N(C)C3CCOCC3)c(F)c12` [Compound 19.102, 2,6-Difluoro-3-(4-fluoro-3-methyl-5-(methyl(tetrahydro-2H-pyran-4-yl)amino)-1H-pyrazolo[3,4-c]pyridin-1-yl)-5-(trifluoromethyl)phenol], `CS(=O)(=O)N1CCN(c2ccc3c(cnn3-c3cc(O)cc(C(F)(F)F)n3)c2)CC1` [Compound 31.02, 2-(5-(4-(Methylsulfonyl)-piperazin-1-yl)-1H-indazol-1-yl)-6-(trifluoromethyl)-pyridin-4-ol] is higher in IC50: 100 to 1000 nM for the first, 1000 to 30000 nM for the second. The first is the more potent here.

With `Cc1cc(O)ccc1-c1ccc2c(cnn2-c2ccc(F)c(O)c2)c1` [Compound 5.19, 2-Fluoro-5-(5-(4-hydroxy-2-methylphenyl)-1H-indazol-1-yl)phenol] the IC50 was 100 to 1000 nM.

same assay, conditions: read-out: HSD17β13 inhibition at 10 uM

`CNC(=O)c1cc(-n2nc(C)c3cc(N4CCOCC45CC5)ncc32)cc(O)c1F` [Compound 19.122, 2-Fluoro-3-hydroxy-N-methyl-5-(3-methyl-5-(7-oxa-4-azaspiro[2.5]octan-4-yl)-1H-pyrazolo[3,4-c]pyridin-1-yl)benzamide] gave an inhibition at 10 µM of 20%.

Source: patent publication US20240034736A1, “HSD17B13 INHIBITORS AND USES THEREOF” (FL2022-001, Inc., priority 2020, published 2024)
